Data taken from patent publication US20050282818A1, “Ubiquitin ligase inhibitors” (Rigel Pharmaceuticals, Inc., priority 2004, published 2005).

Columns and labels:
APC11/APC2 = APC11/APC2 (Homo sapiens, UniProt Q9NYG5+Q9UJX6); experiment: APC-11/APC-2 ligase assay (APC auto ubiquitination); format: biochemical; settings: APC assay
Outline: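 His-tagged APC was captured on nickel plates with human E1 (5 ng/well), UbcH5c (20 ng/well), APC (100 ng/well) and Flag-ubiquitin (100 ng/well) in a Tris pH 7.6 reaction buffer containing 2.5 mM ATP, for 1 hour at room temperature. Read-out was anti-Flag/HRP chemiluminescence. IC50 was set against a DMSO control, typically from 6 or 8 concentrations.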

TRAF6/Uev1A/Ubc13 = biological target: T1, TRAF6/Uev1A/Ubc13 (Homo sapiens, UniProt Q9Y4K3); experiment: TRAF6/Uev1A/Ubc13 plate-based ubiquitin ligase assay; format: biochemical
T1 sequence (Q9Y4K3 1-522): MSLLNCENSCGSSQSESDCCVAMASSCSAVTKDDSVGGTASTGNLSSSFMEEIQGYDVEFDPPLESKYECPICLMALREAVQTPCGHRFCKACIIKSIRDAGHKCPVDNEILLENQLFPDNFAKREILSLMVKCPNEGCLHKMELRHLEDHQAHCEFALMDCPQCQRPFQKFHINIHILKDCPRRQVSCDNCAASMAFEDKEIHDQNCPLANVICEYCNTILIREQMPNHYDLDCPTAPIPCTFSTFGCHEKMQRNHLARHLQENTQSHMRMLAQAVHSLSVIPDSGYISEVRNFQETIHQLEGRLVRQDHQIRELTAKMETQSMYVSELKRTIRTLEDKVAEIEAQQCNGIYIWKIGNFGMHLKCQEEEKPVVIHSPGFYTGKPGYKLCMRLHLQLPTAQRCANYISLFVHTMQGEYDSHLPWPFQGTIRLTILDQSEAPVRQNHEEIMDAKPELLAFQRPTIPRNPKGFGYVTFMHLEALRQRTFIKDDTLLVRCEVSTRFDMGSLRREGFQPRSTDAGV
Outline: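 Ligase activity was read as luminescence from anti-Flag/HRP detection of Flag-ubiquitin bound to casein-blocked Ni-plates alongside His-ubiquitin after a 1 h room-temperature reaction. Buffer: 62.5 mM Tris pH 7.5, 6.25 mM MgCl2, 1.0 mM DTT, 2 μM ATP; E1, Uev1a/Ubc13 and TRAF6 added last to start. IC50s derived across compound concentrations.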

[1] = tested on: ICAM-1 expression in A549 cells; experiment: ICAM assay (IL-1 induced ICAM-1/CD54 expression in A549 cells); format: cell-based, human; settings: Homo sapiens, A549, ICAM assay
Outline: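 Luminescent immunostaining (anti-CD54, then anti-mouse IgG, 1 h) quantifies ICAM-1 on A549 cells induced 4 h at 37° C by IL-1 (4 μl of 25 ng/ml added). Compound is added 1 h before the cytokine to cells plated overnight at 10,000 per well.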

Chain of APC11/APC2 (Q9NYG5 whole entry): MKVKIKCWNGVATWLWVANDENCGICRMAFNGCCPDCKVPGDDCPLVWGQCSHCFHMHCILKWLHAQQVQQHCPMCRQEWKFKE
Chain of APC11/APC2 (Q9UJX6 whole entry): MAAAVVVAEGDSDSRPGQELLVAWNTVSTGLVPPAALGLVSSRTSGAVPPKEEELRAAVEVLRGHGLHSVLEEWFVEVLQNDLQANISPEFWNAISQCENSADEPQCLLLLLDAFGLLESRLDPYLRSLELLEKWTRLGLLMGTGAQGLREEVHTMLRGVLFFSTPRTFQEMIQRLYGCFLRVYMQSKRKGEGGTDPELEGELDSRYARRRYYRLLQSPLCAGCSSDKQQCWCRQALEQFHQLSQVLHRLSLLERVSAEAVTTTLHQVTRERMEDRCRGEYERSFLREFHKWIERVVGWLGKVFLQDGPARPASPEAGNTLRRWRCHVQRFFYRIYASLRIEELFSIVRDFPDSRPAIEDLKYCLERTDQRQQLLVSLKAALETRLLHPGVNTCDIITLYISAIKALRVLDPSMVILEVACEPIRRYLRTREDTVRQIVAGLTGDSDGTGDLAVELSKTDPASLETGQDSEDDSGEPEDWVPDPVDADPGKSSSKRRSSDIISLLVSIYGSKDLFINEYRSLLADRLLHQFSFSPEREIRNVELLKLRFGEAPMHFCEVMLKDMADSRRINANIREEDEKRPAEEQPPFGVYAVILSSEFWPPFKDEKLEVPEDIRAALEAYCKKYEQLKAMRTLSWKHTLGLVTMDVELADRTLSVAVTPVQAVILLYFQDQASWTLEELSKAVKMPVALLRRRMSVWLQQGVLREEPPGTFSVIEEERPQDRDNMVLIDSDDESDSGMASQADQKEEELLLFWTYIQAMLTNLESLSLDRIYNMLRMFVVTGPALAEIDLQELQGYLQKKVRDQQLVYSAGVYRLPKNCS

`Oc1ccc2c(c1)cc(Cl)c1nonc12` [compound 430, 4-chloronaphtho[2,1-c][1,2,5]oxadiazol-7-ol] showed an IC50 (APC11/APC2) of no less than 20 µM, an IC50 (TRAF6/Uev1A/Ubc13) of no less than 20 µM and an IC50 [1] of no less than 20 µM.
For `O=[N+]([O-])c1c(N2CCCCC2)cc(-c2ccc(C(F)(F)F)cc2)c2nonc12` [compound 431, 7-(4-[trifluoromethyl]phenyl)-4-nitro-5-(piperidin-1-yl)-2,1,3-benzoxadiazole], the IC50 (APC11/APC2) was no less than 20 µM, the IC50 (TRAF6/Uev1A/Ubc13) was no less than 20 µM and the IC50 [1] was no less than 20 µM.
With `Cc1cccc(-c2cc(N3CCCCC3)c([N+](=O)[O-])c3nonc23)c1` [compound 432, 7-(3-methylphenyl)-4-nitro-5-(piperidin-1-yl)-2,1,3-benzoxadiazole] the IC50 (APC11/APC2) was no less than 20 µM, the IC50 (TRAF6/Uev1A/Ubc13) was no less than 20 µM and the IC50 [1] was no less than 20 µM.
For `CC(C)(C)c1ccc(-c2cc(N3CCCCC3)c([N+](=O)[O-])c3nonc23)cc1` [compound 433, 7-(4-t-butylphenyl)-4-nitro-5-(piperidin-1-yl)-2,1,3-benzoxadiazole], the IC50 (APC11/APC2) was no less than 20 µM, the IC50 (TRAF6/Uev1A/Ubc13) was no less than 20 µM and the IC50 [1] was no less than 20 µM.
`COc1cccc(-c2cc(N3CCCCC3)c([N+](=O)[O-])c3nonc23)c1` [compound 434, 7-(3-methoxyphenyl)-4-nitro-5-(piperidin-1-yl)-2,1,3-benzoxadiazole] showed an IC50 (APC11/APC2) of no less than 20 µM, an IC50 (TRAF6/Uev1A/Ubc13) of no less than 20 µM and an IC50 [1] of no less than 20 µM.
Molecule `CC(C)(C)c1ccc(-c2ccc(N)c3nonc23)cc1` [compound 435, 7-(4-t-butylphenyl)-2,1,3-benzoxadiazol-4-amine] has an IC50 (APC11/APC2) of no less than 20 µM, an IC50 (TRAF6/Uev1A/Ubc13) of no less than 20 µM and an IC50 [1] of no less than 20 µM.
`CC(=O)Nc1ccc(-c2cc(C)cc(C)c2)c2nonc12` [compound 436, N-(7-[3,5-dimethylphenyl]-2,1,3-benzoxadiazol-4-yl)acetamide] gave an IC50 (APC11/APC2) of no less than 20 µM, an IC50 (TRAF6/Uev1A/Ubc13) of no less than 20 µM and an IC50 [1] of no less than 20 µM.
Molecule `O=[N+]([O-])c1ccc(-c2ccccc2F)c2nonc12` [compound 437, 7-(2-fluorophenyl)-4-nitro-2,1,3-benzoxadiazole] has an IC50 (APC11/APC2) of 1 to 20 µM, an IC50 (TRAF6/Uev1A/Ubc13) of no less than 20 µM and an IC50 [1] of 1 to 20 µM.
`COCCNS(=O)(=O)c1ccc(Cl)c2nonc12` [compound 438, 7-chloro-N-(2-methoxyethyl)-2,1,3-benzoxadiazole-4-sulfonamide] gave an IC50 (APC11/APC2) of no less than 20 µM, an IC50 (TRAF6/Uev1A/Ubc13) of no less than 20 µM and an IC50 [1] of no less than 20 µM.
For `Cc1ccccc1-c1ccc([N+](=O)[O-])c2nonc12` [compound 439, 4-nitro-7-o-tolyl-2,1,3-benzoxadiazole], the IC50 (APC11/APC2) was no less than 20 µM, the IC50 (TRAF6/Uev1A/Ubc13) was no less than 20 µM and the IC50 [1] was 1 to 20 µM.
`O=[N+]([O-])c1ccc(-c2ccccc2)c2nonc12` [compound 440, 4-nitro-7-phenyl-2,1,3-benzoxadiazole] was tested, and the IC50 (APC11/APC2) was 1 to 20 µM, the IC50 (TRAF6/Uev1A/Ubc13) was no less than 20 µM and the IC50 [1] was no less than 20 µM.
Molecule `CC(=O)c1ccc(-c2ccc([N+](=O)[O-])c3nonc23)cc1` [compound 441, 1-(4-[7-nitro-2,1,3-benzoxadiazol-4-yl]phenyl)ethanone] has an IC50 (APC11/APC2) of 1 to 20 µM, an IC50 (TRAF6/Uev1A/Ubc13) of 1 to 20 µM and an IC50 [1] of 1 to 20 µM.
Work on `O=[N+]([O-])c1ccc(-c2ccc(F)cc2)c2nonc12` [compound 442, 4-nitro-7-(4-fluorophenyl)-2,1,3-benzoxadiazole] yielded an IC50 (APC11/APC2) of no less than 20 µM, an IC50 (TRAF6/Uev1A/Ubc13) of 1 to 20 µM and an IC50 [1] of 1 to 20 µM.
Molecule `CC(=O)c1cccc(-c2ccc([N+](=O)[O-])c3nonc23)c1` [compound 443, 1-(3-[7-nitro-2,1,3-benzoxadiazol-4-yl]phenyl)ethanone] has an IC50 (APC11/APC2) of 1 to 20 µM, an IC50 (TRAF6/Uev1A/Ubc13) of 1 to 20 µM and an IC50 [1] of 1 to 20 µM.
With `O=[N+]([O-])c1cccc(-c2ccc([N+](=O)[O-])c3nonc23)c1` [compound 444, 4-nitro-7-(3-nitrophenyl)-2,1,3-benzoxadiazole] the IC50 (APC11/APC2) was 1 to 20 µM, the IC50 (TRAF6/Uev1A/Ubc13) was 1 to 20 µM and the IC50 [1] was 1 to 20 µM.
Molecule `O=S(=O)(NCCCc1ccccc1)c1ccc(Cl)c2nonc12` [compound 445, 7-chloro-N-(3-phenylpropyl)-2,1,3-benzoxadiazole-4-sulfonamide] has an IC50 (APC11/APC2) of no less than 20 µM, an IC50 (TRAF6/Uev1A/Ubc13) of no less than 20 µM and an IC50 [1] of no less than 20 µM.
Work on `O=S(=O)(NCc1ccccn1)c1ccc(Cl)c2nonc12` [compound 446, 7-chloro-N-(pyridin-2-ylmethyl)-2,1,3-benzoxadiazole-4-sulfonamide] yielded an IC50 (APC11/APC2) of no less than 20 µM, an IC50 (TRAF6/Uev1A/Ubc13) of no less than 20 µM and an IC50 [1] of 1 to 20 µM.
Work on `O=S(=O)(NCC1CCCCC1)c1ccc(Cl)c2nonc12` [compound 447, 7-chloro-N-(cyclohexylmethyl)-2,1,3-benzoxadiazole-4-sulfonamide] yielded an IC50 (APC11/APC2) of no less than 20 µM, an IC50 (TRAF6/Uev1A/Ubc13) of no less than 20 µM and an IC50 [1] of 1 to 20 µM.
With `O=S(=O)(NC1CCCCC1)c1ccc(Cl)c2nonc12` [compound 448, 7-chloro-N-(cyclohexyl)-2,1,3-benzoxadiazole-4-sulfonamide] the IC50 (APC11/APC2) was no less than 20 µM, the IC50 (TRAF6/Uev1A/Ubc13) was no less than 20 µM and the IC50 [1] was 1 to 20 µM.
`O=S(=O)(NCC1CC1)c1ccc(Cl)c2nonc12` [compound 449, 7-chloro-N-(cyclopropylmethyl)-2,1,3-benzoxadiazole-4-sulfonamide] showed an IC50 (APC11/APC2) of no less than 20 µM, an IC50 (TRAF6/Uev1A/Ubc13) of no less than 20 µM and an IC50 [1] of no less than 20 µM.
With `COc1ccc2nonc2c1-c1cc(C)cc(C)c1` [compound 450, 4-(3,5-dimethylphenyl)-5-methoxy-2,1,3-benzoxadiazole] the IC50 (APC11/APC2) was no less than 20 µM, the IC50 (TRAF6/Uev1A/Ubc13) was no less than 20 µM and the IC50 [1] was no less than 20 µM.
`O=[N+]([O-])c1ccc(C2=CCCCC2)c2nonc12` [compound 451, 4-cyclohexenyl-7-nitro-2,1,3-benzoxadiazole] showed an IC50 (APC11/APC2) of no less than 20 µM, an IC50 (TRAF6/Uev1A/Ubc13) of no less than 20 µM and an IC50 [1] of 1 to 20 µM.
With `Cc1ccc2nsnc2c1S(=O)(=O)Nc1ccccc1F` [compound 452, N-(2-fluorophenyl)-5-methyl-2,1,3-benzthiadiazole-4-sulfonamide] the IC50 (APC11/APC2) was no less than 20 µM, the IC50 (TRAF6/Uev1A/Ubc13) was no less than 20 µM and the IC50 [1] was no less than 20 µM.
Molecule `CC(=O)Nc1ccc(-c2ccc(C(C)(C)C)cc2)c2nonc12` [compound 453, N-(7-(4-t-butylphenyl)-2,1,3-benzoxadiazol-4-yl)acetamide] has an IC50 (APC11/APC2) of 1 to 20 µM, an IC50 (TRAF6/Uev1A/Ubc13) of no less than 20 µM and an IC50 [1] of no less than 20 µM.
`CC(C)(C)c1ccc(-c2cc3cc(O)ccc3c3nonc23)cc1` [compound 454] showed an IC50 (APC11/APC2) of 1 to 20 µM, an IC50 (TRAF6/Uev1A/Ubc13) of no less than 20 µM and an IC50 [1] of no less than 20 µM.
Molecule `O=S(=O)(NCc1ccncc1)c1ccc(Cl)c2nonc12` [compound 455, 7-chloro-N-(pyridin-4-ylmethyl)-2,1,3-benzoxadiazole-4-sulfonamide] has an IC50 (APC11/APC2) of no less than 20 µM, an IC50 (TRAF6/Uev1A/Ubc13) of no less than 20 µM and an IC50 [1] of 1 to 20 µM.
Work on `O=C1CCCN1CCCNS(=O)(=O)c1ccc(Cl)c2nonc12` [compound 456, 7-chloro-N-(3-[2-oxopyrrolidin-1-yl]propyl)-2,1,3-benzoxadiazole-4-sulfonamide] yielded an IC50 (APC11/APC2) of no less than 20 µM, an IC50 (TRAF6/Uev1A/Ubc13) of no less than 20 µM and an IC50 [1] of no less than 20 µM.
Molecule `Cc1cccc(-c2cc3nsnc3cc2F)c1C` [compound 457, 5-(2,3-dimethylphenyl)-6-fluoro-2,1,3-benzthiadiazole] has an IC50 (APC11/APC2) of no less than 20 µM, an IC50 (TRAF6/Uev1A/Ubc13) of no less than 20 µM and an IC50 [1] of no less than 20 µM.
`Fc1cc2nsnc2cc1-c1ccccc1` [compound 458, 5-fluoro-6-phenyl-2,1,3-benzthiadiazole] gave an IC50 (APC11/APC2) of no less than 20 µM, an IC50 (TRAF6/Uev1A/Ubc13) of no less than 20 µM and an IC50 [1] of no less than 20 µM.
Molecule `Cc1ccc(-c2cc3nsnc3cc2F)cc1C` [compound 459, 5-(3,4-dimethylphenyl)-6-fluoro-2,1,3-benzthiadiazole] has an IC50 (APC11/APC2) of no less than 20 µM, an IC50 (TRAF6/Uev1A/Ubc13) of no less than 20 µM and an IC50 [1] of no less than 20 µM.
`Fc1cc2nsnc2cc1-c1cccc2c1OCO2` [compound 460, 5-(benzodioxol-4-yl)-6-fluoro-2,1,3-benzthiadiazole] was tested, and the IC50 (APC11/APC2) was no less than 20 µM, the IC50 (TRAF6/Uev1A/Ubc13) was no less than 20 µM and the IC50 [1] was no less than 20 µM.
